Results taken from patent US9670211B2, “Aza-oxo-indoles for the treatment and prophylaxis of respiratory syncytial virus infection” (Hoffmann-La Roche Inc., priority 2013, dated 2017).

These compounds were tested on RSV Long strain (assay: Viral Cytopathic Effect (CPE) Assay). Details: human respiratory syncytial virus, 144 h; RSV Long strain (ATCC), cell viability after 6 days by Cell Counting kit-8.
Type: cell-based
Procedure: Viral Cytopathic Effect (CPE) Assay
To measure anti-RSV activity of compounds, 96-well plates are seeded with 6×10^3 cells per well in Dulbecco's modified Eagle's medium (DMEM) containing 10% fetal bovine serum (FBS). Cells are infected the next day with sufficient RSV Long strain (ATCC) to produce an approximately 80-90% cytopathic effect after 6 days, in the presence of serial half-log diluted compound in a total volume of 200 μL per well. The viability of cells is assessed after 6 days using Cell Counting kit-8 (Dojindo Molecular Technologies). The absorbance at 450 nm and referenced at 630 nm is measured to determine 50% effective concentration (EC50).

Question: Which EC50 does the source give for `CC1(C)[C@H](n2c(CN3C(=O)C4(CC4)c4ccncc43)nc3cc(Cl)ccc32)CCS1(=O)=O` (stereo in doubt) [Example 13, 1′-{[5-Chloro-1-(2,2-dimethyl-1,1-dioxidotetrahydrothiophen-3-yl)-1H-benzimidazol-2-yl]methyl}spiro[cyclopropane-1,3′-pyrrolo[2,3-c]pyridin]-2′(1′H)-one] here?
Answer: The EC50 was 397 nM.

Question: With `CS(=O)(=O)[C@H]1C[C@@H](n2c(CN3C(=O)C4(CC4)c4ccncc43)nc3cc(Cl)ccc32)C1` [Example 1-1, 1′-({5-Chloro-1-[cis-3-(methylsulfonyl)cyclobutyl]-1H-benzimidazol-2-yl}methyl)spiro[cyclopropane-1,3′-pyrrolo[2,3-c]pyridin]-2′(1′H)-one] as the compound, how does the EC50 read?
Answer: Its EC50 is 10 nM.

Question: `CS(=O)(=O)[C@H]1C[C@H](n2c(CN3C(=O)C4(CC4)c4ccncc43)nc3cc(Cl)ccc32)C1` [Example 1-2, 1′-({5-Chloro-1-[trans-3-(methylsulfonyl)cyclobutyl]-1H-benzimidazol-2-yl}methyl)spiro[cyclopropane-1,3′-pyrrolo[2,3-c]pyridin]-2′(1′H)-one] was tested. Which EC50 did it give?
Answer: The EC50 was 6 nM.

Question: `O=C1N(Cc2nc3cc(Cl)ccc3n2C2CC3(C2)CS(=O)(=O)C3)c2cnccc2C12CC2` [Example 2-1, 1′-{[5-Chloro-1-(2,2-dioxido-2-thiaspiro[3.3]hept-6-yl)-1H-benzimidazol-2-yl]methyl}spiro[cyclopropane-1,3′-pyrrolo[2,3-c]pyridin]-2′(1′H)-one] was tested. Which EC50 did it give?
Answer: The EC50 was 4 nM.

Question: With `O=C1N(Cc2nc3cc(Cl)ccc3n2C2CCS(=O)(=O)CC2)c2cnccc2C12CC2` [Example 2-2, 1′-{[5-Chloro-1-(1,1-dioxidotetrahydro-2H-thiopyran-4-yl)-1H-benzimidazol-2-yl]methyl}spiro[cyclopropane-1,3′-pyrrolo[2,3-c]pyridin]-2′(1′H)-one] as the compound, how does the EC50 read?
Answer: Its EC50 is 6 nM.

Question: `O=C1N(Cc2nc3cc(Cl)ccc3n2C2CCCC2)c2cnccc2C12CC2` [Example 2-3, 1′-[(5-Chloro-1-cyclopentyl-1H-benzimidazol-2-yl)methyl]spiro[cyclopropane-1,3′-pyrrolo[2,3-c]pyridin]-2′(1′H)-one] was tested. Which EC50 did it give?
Answer: The EC50 was 32 nM.

Question: How did the EC50 turn out when `O=C1N(Cc2nc3cc(Cl)ccc3n2C2COC2)c2cnccc2C12CC2` [Example 2-4, 1′-{[5-Chloro-1-(oxetan-3-yl)-1H-benzimidazol-2-yl]methyl}spiro[cyclopropane-1,3′-pyrrolo[2,3-c]pyridin]-2′(1′H)-one] was run?
Answer: Its EC50 is 70 nM.

Question: With `O=C1N(Cc2nc3cc(Cl)ccc3n2C2CC(F)(F)C2)c2cnccc2C12CC2` [Example 2-5, 1′-{[5-Chloro-1-(3,3-difluorocyclobutyl)-1H-benzimidazol-2-yl]methyl}spiro[cyclopropane-1,3′-pyrrolo[2,3-c]pyridin]-2′(1′H)-one] as the compound, how does the EC50 read?
Answer: Its EC50 is 16 nM.

Question: `O=C1N(Cc2nc3cc(Cl)ccc3n2C2CCOCC2)c2cnccc2C12CC2` [Example 2-6, 1′-{[5-Chloro-1-(tetrahydro-2H-pyran-4-yl)-1H-benzimidazol-2-yl]methyl}spiro[cyclopropane-1,3′-pyrrolo[2,3-c]pyridin]-2′(1′H)-one] was tested. Which EC50 did it give?
Answer: The EC50 was 23 nM.

Question: `O=C1N(Cc2nc3cc(Cl)ccc3n2C2CCC(O)CC2)c2cnccc2C12CC2` (stereo not shown) [Example 2-7, 1′-{[5-Chloro-1-(4-hydroxycyclohexyl)-1H-benzimidazol-2-yl]methyl}spiro[cyclopropane-1,3′-pyrrolo[2,3-c]pyridin]-2′(1′H)-one] was tested. Which EC50 did it give?
Answer: The EC50 was 1.1 nM.

Question: For `O=C1N(Cc2nc3cc(Cl)ccc3n2C2CCC(O)C2)c2cnccc2C12CC2` (stereo not shown) [Example 2-8, 1′-{[5-Chloro-1-(3-hydroxycyclopentyl)-1H-benzimidazol-2-yl]methyl}spiro[cyclopropane-1,3′-pyrrolo[2,3-c]pyridin]-2′(1′H)-one], which EC50 is on record?
Answer: The EC50 was 11 nM.

Question: How did the EC50 turn out when `O=C1NCCC1n1c(CN2C(=O)C3(CC3)c3ccncc32)nc2cc(Cl)ccc21` (stereo not shown) [Example 2-9, 1′-{[5-Chloro-1-(2-oxopyrrolidin-3-yl)-1H-benzimidazol-2-yl]methyl}spiro[cyclopropane-1,3′-pyrrolo[2,3-c]pyridin]-2′(1′H)-one] was run?
Answer: The EC50 was 164 nM.

Question: How did the EC50 turn out when `O=C1CC(n2c(CN3C(=O)C4(CC4)c4ccncc43)nc3cc(Cl)ccc32)CCN1` (stereo not shown) [Example 2-10, 1′-{[5-Chloro-1-(2-oxopiperidin-4-yl)-1H-benzimidazol-2-yl]methyl}spiro[cyclopropane-1,3′-pyrrolo[2,3-c]pyridin]-2′(1′H)-one] was run?
Answer: Its EC50 is 5 nM.

Question: How did the EC50 turn out when `O=C1N(Cc2nc3cc(Cl)ccc3n2C2CCC(F)(F)C2)c2cnccc2C12CC2` (stereo not shown) [Example 2-11, 1′-{[5-Chloro-1-(3,3-difluorocyclopentyl)-1H-benzimidazol-2-yl]methyl}spiro[cyclopropane-1,3′-pyrrolo[2,3-c]pyridin]-2′(1′H)-one] was run?
Answer: Its EC50 is 17 nM.

Question: Which EC50 does the source give for `O=C1N(Cc2nc3cc(Cl)ccc3n2[C@H]2CC[C@@H](C(=O)O)CC2)c2cnccc2C12CC2` [Example 2-12, cis-4-{5-Chloro-2-[(2′-oxospiro[cyclopropane-1,3′-pyrrolo[2,3-c]pyridin]-1′(2′H)-yl)methyl]-1H-benzimidazol-1-yl}cyclohexanecarboxylic acid] here?
Answer: Its EC50 is 510 nM.

Question: How did the EC50 turn out when `O=C1N(Cc2nc3cc(Cl)cnc3n2C2CCS(=O)(=O)C2)c2cnccc2C12CC2` (stereo not shown) [Example 2-13, 1′-{[6-Chloro-3-(1,1-dioxidotetrahydrothiophen-3-yl)-3H-imidazo[4,5-b]pyridin-2-yl]methyl}spiro[cyclopropane-1,3′-pyrrolo[2,3-c]pyridin]-2′(1′H)-one] was run?
Answer: The EC50 was 15 nM.

Question: How did the EC50 turn out when `O=C1N(Cc2nc3cc(Cl)ccc3n2C2CCOC2)c2cnccc2C12CC2` (stereo not shown) [Example 2-14, 1′-{[5-Chloro-1-(tetrahydrofuran-3-yl)-1H-benzimidazol-2-yl]methyl}spiro[cyclopropane-1,3′-pyrrolo[2,3-c]pyridin]-2′(1′H)-one] was run?
Answer: The EC50 was 6 nM.

Question: Which EC50 does the source give for `CC(C)(C)OC(=O)N1CCC(n2c(CN3C(=O)C4(CC4)c4ccncc43)nc3cc(Cl)ccc32)C1` (stereo not shown) [Example 2-15, tert-Butyl 3-{5-chloro-2-[(2′-oxospiro[cyclopropane-1,3′-pyrrolo[2,3-c]pyridin]-1′(2′H)-yl)methyl]-1H-benzimidazol-1-yl}pyrrolidine-1-carboxylate] here?
Answer: The EC50 was 31 nM.

Question: With `O=C1N(Cc2nc3cc(Cl)ccc3n2C(CO)CO)c2cnccc2C12CC2` [Example 2-16, 1′-{[5-Chloro-1-(1,3-dihydroxypropan-2-yl)-1H-benzimidazol-2-yl]methyl}spiro[cyclopropane-1,3′-pyrrolo[2,3-c]pyridin]-2′(1′H)-one] as the compound, how does the EC50 read?
Answer: Its EC50 is 122 nM.

Question: How did the EC50 turn out when `C[C@]1(O)C[C@H](n2c(CN3C(=O)C4(CC4)c4ccncc43)nc3cc(Cl)ccc32)C1` [Example 2-17, 1′-{[5-Chloro-1-(trans-3-hydroxy-3-methylcyclobutyl)-1H-benzimidazol-2-yl]methyl}spiro[cyclopropane-1,3′-pyrrolo[2,3-c]pyridin]-2′(1′H)-one] was run?
Answer: The EC50 was 5 nM.

Question: How did the EC50 turn out when `O=C1N(Cc2nc3cc(Cl)ccc3n2C2CCS(=O)(=O)C2)c2cnccc2C12CC2` (stereo not shown) [Example 3-1, 1′-{[5-Chloro-1-(1,1-dioxidotetrahydrothiophen-3-yl)-1H-benzimidazol-2-yl]methyl}spiro[cyclopropane-1,3′-pyrrolo[2,3-c]pyridin]-2′(1′H)-one] was run?
Answer: Its EC50 is 6 nM.

Question: `O=C1N(Cc2nc3cc(Cl)ccc3n2[C@H]2CCS(=O)(=O)C2)c2cnccc2C12CC2` [Example 3-2, 1′-({5-Chloro-1-[(3S)-1,1-dioxidotetrahydrothiophen-3-yl]-1H-benzimidazol-2-yl}methyl)spiro[cyclopropane-1,3′-pyrrolo[2,3-c]pyridin]-2′(1′H)-one] was tested. Which EC50 did it give?
Answer: The EC50 was 10 nM.
